Assay results: ChEMBL document CHEMBL1201862, “PubChem BioAssay data set” (2004)
The source made the active and inactive calls.

Legend:
[1] = Luminescence Cell-Based Dose Response HTS to Identify Activators of Luciferase Translation or Activity in H4 […] Cells. [Related pubchem assays: 1829 (Project Summary), 1814 (Primary HTS)]; assay type: functional
[2] = system: H4; assay: Luminescence Cell-Based Dose Response HTS to Identify Activators of 5'UTR Stem-Loop Driven Prion Protein mRNA Translation in H4 Neuroglioblastoma Cells. [Related pubchem assays: 1829 (Project Summary), 1814 (Primary HTS)]; assay type: functional; conditions: Homo sapiens
[3] = system: Streptococcus sp. 'group A'; assay: growth inhibition of control SK(-) GAS strain, dose response, counter-screen for streptokinase expression inhibitor project, luminescence, kanamycin, BacTiterGlo, confirmation (AID 1900); assay type: functional, organism-based
[4] = target: T1, Streptokinase A (Streptococcus pyogenes serotype M1, UniProt P10520); assay: S. pyogenes streptokinase expression inhibitors, potency, dose response, plasminogen activation absorbance, OD405 (AID 1914); assay type: functional, Streptococcus pyogenes M1 GAS;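 note: secreted streptokinase activity via plasminogen activation per viability signal from cell pellet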
T1 sequence (P10520 whole entry): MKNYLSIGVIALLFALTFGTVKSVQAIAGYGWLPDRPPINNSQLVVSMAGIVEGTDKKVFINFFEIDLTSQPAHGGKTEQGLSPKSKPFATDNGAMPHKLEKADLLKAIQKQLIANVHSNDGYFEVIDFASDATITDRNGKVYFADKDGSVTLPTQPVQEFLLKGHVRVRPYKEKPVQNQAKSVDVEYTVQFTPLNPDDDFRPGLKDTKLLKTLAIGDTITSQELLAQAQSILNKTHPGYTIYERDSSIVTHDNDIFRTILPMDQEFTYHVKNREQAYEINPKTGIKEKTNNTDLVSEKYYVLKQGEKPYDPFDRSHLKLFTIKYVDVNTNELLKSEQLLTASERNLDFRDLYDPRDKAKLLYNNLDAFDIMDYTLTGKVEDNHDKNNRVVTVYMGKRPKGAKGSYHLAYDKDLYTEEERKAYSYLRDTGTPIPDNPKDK

[5] = system: Streptococcus; assay: Group A Streptococcus viability loss, dose response, counter-screen for streptokinase expression inhibitor project, luminescence, BacTiterGlo (AID 1915); assay type: functional, organism-based;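 note: potency for reduction of bacterial viability or growth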
[6] = target: T2, Rac GTPase-activating protein 1 (Homo sapiens, UniProt Q9H0H5); assay: MgcRacGAP GTPase-activating activity inhibitors, confirmation, biochemical, ADP Hunter fluorescence, primary and confirmatory (AID 624330); assay type: functional
T2 sequence (Q9H0H5 whole entry): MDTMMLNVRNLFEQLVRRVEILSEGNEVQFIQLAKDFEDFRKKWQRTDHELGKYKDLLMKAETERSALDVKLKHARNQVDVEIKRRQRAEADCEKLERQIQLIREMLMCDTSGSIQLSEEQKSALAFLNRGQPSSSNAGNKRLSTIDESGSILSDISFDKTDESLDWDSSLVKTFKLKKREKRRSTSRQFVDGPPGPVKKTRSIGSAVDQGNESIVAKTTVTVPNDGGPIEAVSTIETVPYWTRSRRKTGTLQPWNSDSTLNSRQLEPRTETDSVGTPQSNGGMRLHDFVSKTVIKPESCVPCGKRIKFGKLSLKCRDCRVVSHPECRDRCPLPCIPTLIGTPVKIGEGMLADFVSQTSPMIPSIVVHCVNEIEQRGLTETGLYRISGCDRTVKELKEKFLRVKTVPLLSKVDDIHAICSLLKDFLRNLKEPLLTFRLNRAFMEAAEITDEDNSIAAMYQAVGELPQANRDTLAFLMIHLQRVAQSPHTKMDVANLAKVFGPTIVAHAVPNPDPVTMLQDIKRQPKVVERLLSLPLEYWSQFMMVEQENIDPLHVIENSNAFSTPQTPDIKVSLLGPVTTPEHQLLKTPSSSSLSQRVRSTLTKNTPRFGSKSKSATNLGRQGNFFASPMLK

[7] = target: T3, Heat shock factor protein 1 (Mus musculus, UniProt P38532); assay: inhibition of MG132-induced HSE-luciferase signal, confirmation, cell-based, NIH3T3, luminescence, dose retest (AID 2382); assay type: functional;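 note: NIH3T3 fibroblasts with HSF1-driven luciferase reporter stressed by proteasome inhibitor MG132; luminescence from HSF1-driven luciferase expression after 8 hours of MG132 stress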
T3 sequence (P38532 whole entry): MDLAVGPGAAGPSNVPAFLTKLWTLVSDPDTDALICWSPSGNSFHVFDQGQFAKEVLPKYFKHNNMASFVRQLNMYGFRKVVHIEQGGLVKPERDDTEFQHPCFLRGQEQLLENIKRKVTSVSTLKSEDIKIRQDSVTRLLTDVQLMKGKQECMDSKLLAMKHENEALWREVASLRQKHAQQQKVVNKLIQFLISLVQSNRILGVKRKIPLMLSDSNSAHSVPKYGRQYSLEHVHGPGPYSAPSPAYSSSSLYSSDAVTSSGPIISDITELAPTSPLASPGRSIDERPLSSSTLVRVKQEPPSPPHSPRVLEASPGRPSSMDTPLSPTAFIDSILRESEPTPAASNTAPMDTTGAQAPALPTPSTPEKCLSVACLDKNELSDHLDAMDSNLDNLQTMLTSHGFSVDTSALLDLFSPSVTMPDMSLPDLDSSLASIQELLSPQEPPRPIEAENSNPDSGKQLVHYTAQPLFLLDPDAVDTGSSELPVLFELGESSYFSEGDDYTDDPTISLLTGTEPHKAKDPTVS

[8] = target: Cytochrome P450 2C9 (Homo sapiens, UniProt P11712)
Chain of Cytochrome P450 2C9 (P11712 whole entry): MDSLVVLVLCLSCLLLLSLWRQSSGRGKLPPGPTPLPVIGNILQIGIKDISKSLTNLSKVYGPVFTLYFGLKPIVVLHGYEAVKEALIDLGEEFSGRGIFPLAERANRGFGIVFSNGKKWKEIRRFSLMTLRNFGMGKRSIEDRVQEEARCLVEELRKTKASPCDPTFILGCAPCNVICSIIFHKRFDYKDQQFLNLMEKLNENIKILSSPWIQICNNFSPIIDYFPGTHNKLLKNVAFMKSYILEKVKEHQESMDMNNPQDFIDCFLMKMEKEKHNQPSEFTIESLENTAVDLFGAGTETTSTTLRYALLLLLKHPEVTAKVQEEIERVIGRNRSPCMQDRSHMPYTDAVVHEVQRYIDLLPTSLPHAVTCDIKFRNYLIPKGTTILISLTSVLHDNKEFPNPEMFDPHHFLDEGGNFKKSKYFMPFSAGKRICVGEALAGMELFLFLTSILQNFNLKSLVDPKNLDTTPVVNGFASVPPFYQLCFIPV

[9] = target: T4, Corticotropin-releasing factor receptor 2/Corticotropin-releasing factor-binding protein (Homo sapiens, UniProt P24387+Q13324); assay: activators of CRF receptor 2 with binding protein – uHTS hits, confirmation (AID 602473); assay type: functional; conditions: read-out: EC50_Mean
T4 sequence (Q13324 whole entry): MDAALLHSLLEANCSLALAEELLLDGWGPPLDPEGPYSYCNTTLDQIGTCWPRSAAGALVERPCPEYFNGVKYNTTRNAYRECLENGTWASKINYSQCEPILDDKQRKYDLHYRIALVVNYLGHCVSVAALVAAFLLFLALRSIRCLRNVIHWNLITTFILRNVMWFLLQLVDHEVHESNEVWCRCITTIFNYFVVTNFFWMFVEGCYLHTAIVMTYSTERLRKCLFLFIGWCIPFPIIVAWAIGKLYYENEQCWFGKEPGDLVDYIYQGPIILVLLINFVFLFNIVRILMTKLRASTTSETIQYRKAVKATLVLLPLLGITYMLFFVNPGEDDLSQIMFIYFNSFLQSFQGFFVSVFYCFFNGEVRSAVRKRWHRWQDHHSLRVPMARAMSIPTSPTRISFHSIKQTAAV
T4 sequence (P24387 whole entry): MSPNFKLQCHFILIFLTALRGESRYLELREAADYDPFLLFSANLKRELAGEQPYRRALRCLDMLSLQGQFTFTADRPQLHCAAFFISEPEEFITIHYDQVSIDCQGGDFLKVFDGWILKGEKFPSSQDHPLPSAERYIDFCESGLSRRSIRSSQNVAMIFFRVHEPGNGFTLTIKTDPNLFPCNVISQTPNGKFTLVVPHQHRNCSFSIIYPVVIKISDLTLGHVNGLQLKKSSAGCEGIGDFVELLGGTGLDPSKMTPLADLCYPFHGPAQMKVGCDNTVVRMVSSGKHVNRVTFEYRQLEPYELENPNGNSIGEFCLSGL

[10] = target: Cytochrome P450 2C19 (Homo sapiens, UniProt P33261); assay: Cytochrome panel assay with activity outcomes. Panel member name: p450-cyp2c19 Compounds with AC50 equal or less than 10 uM are considered active; assay type: functional; conditions: read-out: AC50
Chain of Cytochrome P450 2C19 (P33261 whole entry): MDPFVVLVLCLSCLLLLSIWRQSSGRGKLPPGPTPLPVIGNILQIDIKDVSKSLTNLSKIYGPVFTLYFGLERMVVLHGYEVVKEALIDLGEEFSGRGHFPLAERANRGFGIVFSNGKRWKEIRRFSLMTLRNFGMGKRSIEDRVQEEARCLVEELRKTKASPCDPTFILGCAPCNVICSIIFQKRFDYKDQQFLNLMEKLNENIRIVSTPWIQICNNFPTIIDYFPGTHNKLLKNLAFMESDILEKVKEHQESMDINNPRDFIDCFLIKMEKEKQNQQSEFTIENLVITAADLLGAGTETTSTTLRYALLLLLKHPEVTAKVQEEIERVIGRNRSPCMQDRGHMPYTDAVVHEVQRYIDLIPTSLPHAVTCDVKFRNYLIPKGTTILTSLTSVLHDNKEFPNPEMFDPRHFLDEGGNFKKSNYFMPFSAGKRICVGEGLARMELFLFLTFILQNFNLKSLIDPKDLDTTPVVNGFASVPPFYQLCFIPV

SMILES: O=C(NCCc1ccccc1)C1=COCCO1
- EC50 [1]: 0.762 µM (active)
- EC50 [2]: > 120 µM (not active)

SMILES: O=C(Nc1nnc(C2=COCCO2)o1)c1cccc(F)c1
- EC50 [3]: 1.83 µM (active)
- EC50 [4]: > 150 µM (not active)
- EC50 [5]: 19.6 µM (active)

SMILES: Oc1ccc(N2CCN(C(c3cccs3)c3nnnn3CCc3ccccc3)CC2)cc1 (stereo not drawn)
- IC50 [6]: 47.3 µM (active)

SMILES: COc1ccc(CCN2CC(C(=O)NCCc3ccccn3)CCC2=O)cc1 (stereo not drawn)
- EC50 [3]: > 150 µM (not active)
- EC50 [4]: > 150 µM (not active)
- EC50 [5]: > 150 µM (not active)

SMILES: COc1ccc(N2CCN(c3ncccc3C#N)CC2)cc1
- IC50 [6]: 157 µM (active)

SMILES: Cc1ccc(C(=O)Nc2ccc3c(c2)C(=O)NC3=O)cc1
- EC50 [7]: > 195 µM (not active)

SMILES: CCC[C@@H]1C[C@@]1(CCC)[C@@H](NP(=O)(c1ccccc1)c1ccccc1)c1ccc(C(=O)OC)cc1
- EC50 [3]: 5.5 µM (active)
- EC50 [4]: > 150 µM (not active)
- EC50 [5]: 6.87 µM (active)

SMILES: CC(=O)Nc1ccc(-c2nnn(CC(=O)Nc3ccc4c(c3)OCO4)n2)cc1Cl
- EC50 [7]: > 195 µM (not active)

SMILES: COC(=O)[C@@]1(Cc2ccc(OC)cc2)[C@H]2c3cc(C(=O)N4CCCC4)n(Cc4cc(C)n(C)n4)c3C[C@H]2CN1C(=O)c1ccccc1
- AC50 [8]: 12.6 µM (inconclusive)

SMILES: Cc1ccc(-n2ncc(Cl)c2C(=O)NC2CC2)cc1
- EC50 [1]: 0.26 µM (active)

SMILES: O=C(c1cc(-c2ccccc2)nc2ccccc12)N1CCN(c2ccccc2O)CC1
- EC50 [3]: 23.8 µM (active)
- EC50 [4]: 61.5 µM (active)
- EC50 [5]: 61.7 µM (active)

SMILES: O=C1CN(C(=O)COc2c(Cl)cccc2Cl)c2ccccc2N1
- EC50 [7]: > 195 µM (not active)

SMILES: CN1/C(=C\C=C(/C#N)C(=O)Nc2ccc(Cl)cc2)C(C)(C)c2ccccc21
- EC50 [9]: 6.43 µM (active)

SMILES: CCOC(=O)c1cnc2ccc(C(=O)OC)cc2c1NCCCN1CCOCC1
- EC50 [7]: > 195 µM (not active)

SMILES: Cc1ccc(C(=O)NC(=S)NNC(=O)COc2ccccc2C)cc1
- EC50 [3]: 0.138 µM (active)
- EC50 [5]: 0.555 µM (active)
- EC50 [9]: 10.6 µM (active)

SMILES: CCCn1nc2cc(C(=O)NCc3ccc4c(c3)OCO4)ccc2c1OCC
- AC50 [10]: 14.1 µM (inconclusive)
- AC50 [8]: 10 µM (inconclusive)

SMILES: CCc1ccc(-c2nc(C[S+]([O-])CC(=O)NCc3cccnc3)c(C)o2)cc1 (stereo not drawn)
- EC50 [7]: > 195 µM (not active)

SMILES: COc1ccc(C(=O)N2CCN(CCCc3ccccc3)CC2)cc1OC
- IC50 [6]: 123 µM (active)

SMILES: Cc1cc(Oc2ccc(-c3ccccc3)cc2)n2ncnc2n1
- IC50 [6]: 22.7 µM (active)

SMILES: COc1ccc(N2C(=O)/C(=C\NNS(=O)(=O)c3cc(C)ccc3C)c3ccccc3C2=O)cc1OC
- EC50 [9]: 15.5 µM (active)

SMILES: CCc1c(O)n(-c2ccccc2)c(SCC(=O)NC(C)(C)C)nc1=O
- AC50 [10]: 35.5 µM (inconclusive)
- AC50 [8]: 20 µM (inconclusive)

SMILES: CCC(CC)C(=O)Nc1cccc(C(=O)Nc2ccc(OC)cc2[N+](=O)[O-])c1
- AC50 [10]: 0.316 µM (inconclusive)
- AC50 [8]: 0.891 µM (inconclusive)

SMILES: C=CCn1c(C)nnc1SCC(=O)Nc1nc(C)c(C(=O)N(C)C)s1
- EC50 [7]: > 195 µM (not active)

SMILES: CCN(CC)c1ccc(NC(=O)c2c(C)noc2C)cc1
- EC50 [3]: > 150 µM (not active)
- EC50 [4]: > 150 µM (not active)
- EC50 [5]: > 150 µM (not active)

SMILES: O=S(=O)(Nc1cccc(-n2cnnn2)c1)c1cc(Cl)ccc1Cl
- EC50 [7]: > 195 µM (not active)

SMILES: Nc1ccc(-c2nc3nc(N)nc(N)c3nc2-c2ccc(N)cc2)cc1
- EC50 [3]: 2.94 µM (active)
- EC50 [4]: > 150 µM (not active)
- EC50 [5]: > 150 µM (not active)

SMILES: CCN(CC)c1ccc(C2Nc3cccc4cccc(c34)N2)cc1
- EC50 [1]: 16.8 µM (active)
- EC50 [2]: 27.2 µM (active)

SMILES: O=C(O)CCC1(C(=O)O)OCCc2ccccc21 (stereo not drawn)
- EC50 [7]: > 195 µM (not active)

SMILES: Cc1nccn1Cc1cccc2ccccc12
- EC50 [7]: > 195 µM (not active)

SMILES: Fc1cc(F)cc(-c2oncc2-c2nnnn2-c2ccccc2)c1
- EC50 [7]: > 195 µM (not active)

SMILES: CCOC(=O)c1cn2nc(Oc3ccccc3)ccc2n1
- EC50 [1]: 7.96 µM (active)
- EC50 [2]: > 120 µM (not active)

SMILES: Cn1nc(-c2ccccc2)c(C(=O)Nc2ccc(Cl)cc2)c1Cl
- AC50 [10]: 2 µM (inconclusive)
- AC50 [8]: 0.141 µM (inconclusive)

SMILES: CC[C@@H](C)[C@H](NC(=O)Cc1c(C)c2cc3c(C)c(C)oc3c(C)c2oc1=O)C(=O)O
- EC50 [7]: > 195 µM (not active)

SMILES: CCCC(=O)Nc1sc2c(c1C#N)CCCCC2
- EC50 [1]: 0.102 µM (active)
- EC50 [2]: > 120 µM (not active)

SMILES: Cc1ccc(NC(=O)CN2C(=O)N/C(=C/c3ccc(C)o3)C2=O)cc1
- AC50 [8]: 14.1 µM (inconclusive)

SMILES: Cc1cc(C)nc(SCc2nnc(SCC(N)=O)n2Cc2ccco2)n1
- AC50 [8]: 3.55 µM (inconclusive)

SMILES: COc1cccc(CN2CCN(C(=O)c3ccco3)CC2)c1OC
- IC50 [6]: 163 µM (active)

SMILES: Oc1ccc(/C=N/NC(=S)N2CCOCC2)cc1
- IC50 [6]: 63.7 µM (active)

SMILES: CSC1=NN(c2ccccc2)CN(c2ccccc2)N1C
- IC50 [6]: 75.6 µM (active)

SMILES: O=c1c(-c2ccccc2Cl)c[nH]n1-c1ccccc1
- IC50 [6]: 97.4 µM (active)

SMILES: O=C(N/N=C/c1ccc(OCc2ccccc2)cc1)c1ccncc1
- EC50 [1]: 17.7 µM (active)
- EC50 [2]: 19.3 µM (active)

SMILES: CSc1ccc(/C=N/n2c(C)cc(C)cc2=O)cc1
- EC50 [1]: 18.2 µM (active)
- EC50 [2]: 7.91 µM (active)

SMILES: CC(/C=N/n1c(S)nnc1-c1ccco1)=C\c1ccccc1
- IC50 [6]: 108 µM (active)

SMILES: C[C@H](N)C(=O)OC(C)(C)Cc1ccc(Cl)cc1 [(S)-ALAPROCLATE]
- AC50 [8]: 39.8 µM (inconclusive)
